Laboratory results as given in article PMC8286836, “Identifying SARS-CoV-2 antiviral compounds by screening for small molecule inhibitors of Nsp5 main protease” (Biochemical Journal, 2021).
Values joined by “and” are separate entries in the source; they are usually repeats but may differ in a detail not shown here. Equal entries are not always repeated. “Also recorded” adds a separate entry of the source. Where two headings read alike, the source gives them in different places. Where a SMILES comes first, the peptide text is derived from it. [ ]: non-standard residue; d: D form. The star is where a group is joined. Nle = CCCC[C@H](N)C(=O)O; Cbz = O=C(OCc1ccccc1)*; CH2F = FC*

Key:
[1] = target: T1, nsp5 (Severe acute respiratory syndrome coronavirus 2, UniProt P0DTD1); test: biochemical; assay type: biochemical; conditions: for inhibition of nsp5 in FRET-based assay: drug concentrations 0 to 500 µM; for inhibition of nsp5 in presence of reducing agent: DTT or GSH; for inhibition of nsp5 in absence of reducing agent: no reducing agent
[2] = target: T1, nsp5; test: Gel based nsp9 cleavage assay; assay type: biochemical; conditions: 1 µM nsp5, drug 10-500 µM
[3] = system: SARS-CoV-2; test: viral infectivity assay in Vero E6 cells; assay type: cell-based; conditions: for EC50: read-out: EC50 viral infection
[4] = system: rhesus macaques; design: method as in PMID 29553486; conditions: trials investigating AIDS disease progression; cited from earlier work
[5] = system: mice; conditions: cited from earlier work
[6] = target: thrombin (Homo sapiens, UniProt P00734); test: thrombin FRET protease assay (specificity); assay type: biochemical; conditions: for inhibition of thrombin activity (words): same buffer as in the HTS
Text: Calpain Inhibitor I and Z-DEVD-FMK were described recently as nsp5 inhibitors in vitro [21, 25]. To test the specificity of the final five drugs we tested them against a different protease, thrombin. We used the same buffer as in the HTS, which contained a non-ionic detergent, which reduces the likelihood of unspecific inhibition via colloidal aggregation. […] Lastly, we tested whether these compounds could inhibit the other viral coronavirus protease (nsp3 PLpro), which is also a cysteine protease. The substrate and assay conditions used in this experiment as well as example inhibitor compounds of PLpro are described elsewhere (see [28]).
The peptides were analysed by LC–MS on an Agilent 1100 LC-MSD.

[7] = FRET-based assay, 10 nM nsp5, 20 µM substrate, 2 mM DTT, mean ± SEM, read-out: IC50
[8] = Severe acute respiratory syndrome coronavirus 2, Vero C1008, Vero E6 cells, MOI 0.5 PFU/cell, mean ± SEM

Molecule | IC50 [1, 7] [nM] | Hill coefficient (nH) ([1]; FRET-based assay, mean ± SEM) | inhibition of nsp5 in nsp9 gel-based cleavage assay (words) [2] | inhibition of nsp5 in FRET-based assay [1] | further results
CCC(C)C(NC(=O)OCc1ccccc1)C(=O)NC(CCC(=O)OC)C(=O)NC(C(=O)NC(CC(=O)OC)C(=O)CF)C(C)O (stereo not shown) [Z-IETD-FMK] (Cbz-IE(OMe)TD(OMe)-CH2F; configuration not given here) | 230 ± 10 | -1.4 ± 0.08 | inhibited nsp5 | – | –
COC(=O)CC(NC(=O)C(CC(C)C)NC(=O)C(NC(=O)C(C)NC(=O)C(CO)NC(=O)OCc1ccccc1)C(C)C)C(=O)CF (stereo not shown) [Z-SAVLD-FMK] (Cbz-SAVLD(OMe)-CH2F; configuration not given here) | 20 ± 1 | – | – | – | –
COC(=O)CC(NC(=O)C(C)NC(=O)C(NC(=O)OCc1ccccc1)C(C)C)C(=O)CF (stereo not drawn) [Z-VAD-FMK, Z-VAD(OMe)-FMK] (Cbz-Val-Ala-Asp(OMe)-CH2F; configuration not given here) | – | -1.5 ± 0.07 | inhibited nsp5 | – | IC50 [1]: 160 ± 10 nM; EC50 [3, 8]: 138 ± 19 µM; concentrations at which inhibition of viral infection was displayed ([3]; Vero E6 cells): greater than 100 µM
COC(=O)CC(NC(=O)C(CC(C)C)NC(=O)C(NC(=O)C(C)NC(=O)OCc1ccccc1)C(C)C)C(=O)CF (stereo not shown) [Z-AVLD-FMK] (Cbz-AVLD(OMe)-CH2F; configuration not given here) | – | – | – | – | IC50 ([1]; FRET-based assay, custom FMK peptides, mean ± SEM, read-out: IC50): < 1 nM and 0.8 nM; EC50 ([3]; Severe acute respiratory syndrome coronavirus 2, Vero C1008): 66 ± 7.28 µM; increase in inhibitor potency (EC50) compared with Z-VAD-FMK ([3]; Vero E6 cells): 2 fold; EC50 [3]: 66 ± 7.3 µM
Br.CCCc1cc(-c2nc(-c3ccc(C)cc3)cs2)ccn1 [Fatostatin HBr] | 64900 | -0.3 ± 0.08 | Did not inhibit; also recorded: did not show inhibition at any of the drug concentrations | showed some inhibition of nsp5 | –
CN1CCN(c2c(F)cc3c(=O)c(C(=O)O)cn4c3c2OCN4C)CC1 [Marbofloxacin] | – | – | – | Did not inhibit | –
Q-DEVD-OPh | – | – | only displayed inhibition at the highest concentration of drug tested | – | –
Q-IETD-OPh | – | – | showed the best nsp5 inhibition | – | –
CCOc1ccc(Cc2cc([C@@H]3O[C@H](SC)[C@@H](O)[C@H](O)[C@H]3O)ccc2Cl)cc1 [Sotagliflozin (LX4211), Sotagliflozin] | – | – | – | Did not inhibit | –
CC(C)[C@H](NC(=O)c1ccc2ccccc2n1)C(=O)N[C@@H](CC(=O)O)C(=O)COc1c(F)cccc1F [Q-VD-OPh] | – | – | did not inhibit nsp5 activity | – | toxic side effects in rhesus macaques [4]: no toxic side effects
COC(=O)CC(NC(=O)C(CC(C)C)NC(=O)C(NC(=O)C(C)NC(=O)C(CO)NC(=O)C(C)NC(=O)OCc1ccccc1)C(C)C)C(=O)CF (stereo not shown) [Z-ASAVLD-FMK] (Cbz-ASAVLD(OMe)-CH2F; configuration not given here) | 260 ± 20 | – | – | – | –
PDK1/Akt/Flt Dual Pathway Inhibitor | 26300 | -0.3 ± 0.02 | Did not inhibit | showed some inhibition of nsp5 | inhibition of nsp5 in nsp9 gel-based cleavage assay (words) ([2]; listed as PDK1/Akt/Flt Dual pathway): did not show inhibition at any of the drug concentrations
COc1cc2ncc(-c3ccccc3)nc2cc1OC [Tyrphostin AG 1296] | – | – | did not inhibit in either validation step | did not inhibit in either validation step | –
COC(=O)CCC(NC(=O)C(CC(=O)OC)NC(=O)OCc1ccccc1)C(=O)NC(C(=O)NC(CC(=O)OC)C(=O)CF)C(C)C (stereo not shown) [Z-DEVD-FMK] | – | -0.7 ± 0.05 | inhibited nsp5 | – | IC50 [1]: 230 ± 30 nM
CCCC[C@@H](C=O)NC(=O)[C@H](CC(C)C)NC(=O)[C@H](CC(C)C)NC(C)=O [Calpain Inhibitor I, (2S)-2-(acetylamino)-N-[(1S)-1-({[(1S)-1-formylpentyl]amino}carbonyl)-3-methylbutyl]-4-methylpentanamide] (Ac-Leu-Leu-[Nle]-aldehyde) | 5170 ± 170 | -2.0 ± 0.1 | inhibited nsp5 | – | toxic effects in mice [5]: without obvious toxic effects; inhibition of nsp5 in presence of reducing agent ([1]; FRET-based assay): inhibited nsp5 in the absence of reducing agent as well as the presence of either reducing agent; IC50 ([1]; FRET-based assay, Reducing agent: DTT, read-out: IC50): 2800 ± 200 nM; IC50 ([1]; FRET-based assay, Reducing agent: GSH, read-out: IC50): 2300 ± 200 nM; IC50 ([1]; FRET-based assay, Reducing agent: None, read-out: IC50): 2400 ± 100 nM; inhibition of nsp5 in absence of reducing agent ([1]; FRET-based assay): inhibited nsp5 in the absence of reducing agent; EC50 [3, 8]: 0.28 ± 0.01 µM
O=c1c2ccccc2[se]n1-c1ccccc1 [Ebselen] | – | – | – | – | inhibition of nsp5 in presence of reducing agent ([1]; FRET-based assay): only a slight reduction in nsp5 activity; inhibition of nsp5 in absence of reducing agent ([1]; FRET-based assay): inhibited nsp5 only in the absence of a reducing agent
CCNC(=O)[C@H]1O[C@@H](n2cnc3c(N)ncnc32)[C@H](O)[C@@H]1O [5'-N-Ethulcarbomaxidoadenosine] | – | – | – | Did not inhibit | –
O=C1O/C(=C/Br)CCC1c1cccc2ccccc12 (stereo not shown) [Bromoenol lactone] | – | -2.6 ± 0.15 | inhibited nsp5 | – | Inhibition of thrombin: nH ([6]; HTS buffer, thrombin FRET substrate, mean ± SEM): -2.8 ± 0.8; IC50 ([6]; HTS buffer, thrombin FRET substrate, mean ± SEM, read-out: Inhibition of thrombin: IC50): 400 ± 600 nM; inhibition of thrombin activity (words) [6]: I nhibited thrombin; inhibition of thrombin activity (words) ([6]; listed as bromoenol lactone): inhibited thrombin activity; IC50 [1]: 3400 nM
Cc1ccccc1N=Nc1ccc(NC(=O)c2ccnn2C)c(C)c1 [CH-223191] | – | – | – | Did not inhibit | –
